Experimental data taken from US20030201224A1, “Microbial consortium for the biodegradation of dithiocarbamates” (priority 2002, published 2003).
Like-named read-outs stand apart in the source and are kept apart here.

Key:
consortium [1] = assay: Degradation of other N-alkyl dithiocarbamates by the consortium (1000 ml bioreactor); details: pH 7.2, 20-27° C.
Method: A 1000 ml bioreactor containing the synthetic medium (described above) has been inoculated with the consortium density of approximately 1.1×10^7 ml. The initial pH value was 7.2 and the temperature varied between 20-27° C. Dithiocarbamate concentration was measured spectrophometrically by complexing with cupric acetate and measuring the absorbance at 430 nm.

microbial consortium = details: soil
Method: One soil environment was inoculated with approximately 1.2×10^7 consortium members/g soil while the other remained uninoculated. Nitrogen and phosphorus was added to both systems. The initial soil pH was 6.8 and the temperature varied from 18° C. to 27° C. Water was added to maintain the dry weight at about 30%. Each soil system was mixed weekly to provide aeration.

consortium [2] = details: within 72 hour; waste wash-water about 1100 ppm SDM and dilution at 500 ppm, pH 7.8; 20% inoculum of 72 h consortium
Method: The sample, and a dilution of it at 500 ppm and pH 7.8, was inoculated with a 20% (VN) amount of a 72 h consortium. A control without inoculation was included.

CCCN(CCC)C(=S)[S-].[Na+] [DiPropyl Dithiocarbamate, Sodium Dipropyl dithiocarbamates]
% degradation (percent loss over the abiotic Control) (consortium [1]; time 0 h): 3.99%
% degradation (percent loss over the abiotic Control) (consortium [1]; time 0.5 h): 3.87%
% degradation (percent loss over the abiotic Control) (consortium [1]; time 1.5 h): 4.21%
% degradation (percent loss over the abiotic Control) (consortium [1]; time 4 h): 3.56%
% degradation (percent loss over the abiotic Control) (consortium [1]; time 5 h): 3.49%
% degradation (percent loss over the abiotic Control) (consortium [1]; time 7 h): 4.37%
% degradation (percent loss over the abiotic Control) (consortium [1]; time 27 h): 7.82%
% degradation (percent loss over the abiotic Control) (consortium [1]; time 51 h): 9.43%
% degradation (percent loss over the abiotic Control) (consortium [1]; time 73 h): 11.24%
% degradation (percent loss over the abiotic Control) (consortium [1]; time 96 h): 14.56%

CCCCN(CCCC)C(=S)[S-].[Na+] [Dibutyl Dithiocarbamate, Sodium Dibutyl dithiocarbamates]
% degradation (percent loss over the abiotic Control) (consortium [1]; time 0 h): 4.44%
% degradation (percent loss over the abiotic Control) (consortium [1]; time 0.5 h): 4.70%
% degradation (percent loss over the abiotic Control) (consortium [1]; time 1.5 h): 4.10%
% degradation (percent loss over the abiotic Control) (consortium [1]; time 4 h): 3.81%
% degradation (percent loss over the abiotic Control) (consortium [1]; time 5 h): 3.98%
% degradation (percent loss over the abiotic Control) (consortium [1]; time 7 h): 4.12%
% degradation (percent loss over the abiotic Control) (consortium [1]; time 27 h): 6.11%
% degradation (percent loss over the abiotic Control) (consortium [1]; time 51 h): 6.66%
% degradation (percent loss over the abiotic Control) (consortium [1]; time 73 h): 7.93%
% degradation (percent loss over the abiotic Control) (consortium [1]; time 96 h): 9.46%

CCN(CC)C(=S)S [Diethyl Dithiocarbamate, sodium diethyl dithiocarbamate]
% degradation (percent loss over the abiotic Control) (consortium [1]; time 0 h): 3.28%
% degradation (percent loss over the abiotic Control) (consortium [1]; time 0.5 h): 2.80%
% degradation (percent loss over the abiotic Control) (consortium [1]; time 1.5 h): 8.78%
% degradation (percent loss over the abiotic Control) (consortium [1]; time 4 h): 8.18%
% degradation (percent loss over the abiotic Control) (consortium [1]; time 5 h): 13.29%
% degradation (percent loss over the abiotic Control) (consortium [1]; time 7 h): 15.01%
% degradation (percent loss over the abiotic Control) (consortium [1]; time 27 h): 18.00%
% degradation (percent loss over the abiotic Control) (consortium [1]; time 51 h): 21.00%
% degradation (percent loss over the abiotic Control) (consortium [1]; time 73 h): 23.00%
% degradation (percent loss over the abiotic Control) (consortium [1]; time 96 h): 25.07%

CN(C)C(=S)[S-].[Na+] [SDM, Sodium dimethyl dithiocarbamate]
% degradation (percent loss over the abiotic Control) (consortium [1]; time 0.5 h): 8.1%
% degradation (percent loss over the abiotic Control) (consortium [1]; time 1.5 h): 9.5%
% degradation (percent loss over the abiotic Control) (consortium [1]; time 4 h): 12.3%
% degradation (percent loss over the abiotic Control) (consortium [1]; time 5 h): 12.1%
% degradation (percent loss over the abiotic Control) (consortium [1]; time 7 h): 27.1%
% degradation (percent loss over the abiotic Control) (consortium [1]; time 27 h): 61.4%
% degradation (percent loss over the abiotic Control) (consortium [1]; time 51 h): 77.8%
% degradation (percent loss over the abiotic Control) (consortium [1]; time 73 h): 88.7%
% degradation (percent loss over the abiotic Control) (consortium [1]; time 96 h): 97.5%
PERCENT degradation of SDM (microbial consortium; 100 mg SDM per kg soil, 1 d): 1.6%
PERCENT degradation of SDM (microbial consortium; 100 mg SDM per kg soil, 3 d): 18.3%
PERCENT degradation of SDM (microbial consortium; 100 mg SDM per kg soil, 7 d): 50.2%
PERCENT degradation of SDM (microbial consortium; 500 mg SDM per kg soil, 1 d): 6.2%
PERCENT degradation of SDM (microbial consortium; 500 mg SDM per kg soil, 3 d): 22.6%
PERCENT degradation of SDM (microbial consortium; 500 mg SDM per kg soil, 7 d): 63%
PERCENT degradation of SDM (microbial consortium; 1000 mg SDM per kg soil, 1 d): 4.8%
PERCENT degradation of SDM (microbial consortium; 1000 mg SDM per kg soil, 3 d): 16.3%
PERCENT degradation of SDM (microbial consortium; 1000 mg SDM per kg soil, 7 d): 39.7%
PERCENT degradation of SDM (microbial consortium; 1000 mg SDM per kg soil, 10 d): 48%
PERCENT degradation of SDM (microbial consortium; 1000 mg SDM per kg soil, 14 d): 72%
PERCENT degradation of SDM (microbial consortium; 1000 mg SDM per kg soil, 20 d): 76%
PERCENT degradation of SDM (microbial consortium; 2000 mg SDM per kg soil, 1 d): 3.9%
PERCENT degradation of SDM (microbial consortium; 2000 mg SDM per kg soil, 3 d): 12.4%
PERCENT degradation of SDM (microbial consortium; 2000 mg SDM per kg soil, 7 d): 26.7%
PERCENT degradation of SDM (microbial consortium; 2000 mg SDM per kg soil, 10 d): 32.1%
PERCENT degradation of SDM (microbial consortium; 2000 mg SDM per kg soil, 14 d): 47.6%
PERCENT degradation of SDM (microbial consortium; 2000 mg SDM per kg soil, 20 d): 54%
PERCENT degradation of SDM (microbial consortium; 2000 mg SDM per kg soil, 28 d): 58%
PERCENT degradation of SDM (microbial consortium; 5000 mg SDM per kg soil, 1 d): 5.2%
PERCENT degradation of SDM (microbial consortium; 5000 mg SDM per kg soil, 3 d): 3.1%
PERCENT degradation of SDM (microbial consortium; 5000 mg SDM per kg soil, 7 d): 2.3%
PERCENT degradation of SDM (microbial consortium; 5000 mg SDM per kg soil, 10 d): 1.8%
PERCENT degradation of SDM (microbial consortium; 5000 mg SDM per kg soil, 14 d): 3.6%
PERCENT degradation of SDM (microbial consortium; 5000 mg SDM per kg soil, 20 d): 1.8%
PERCENT degradation of SDM (microbial consortium; 5000 mg SDM per kg soil, 28 d): 3.2%
SDM degraded by the consortium (consortium [2]): ~100%
